In PubChem BioAssay (NCI):
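Test compounds were applied to cells in 96-well plates for 48 hours at 5 doses. Here, GI50 denotes the concentration required for 50% inhibition of growth. TGI is the concentration that stops growth completely.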

Key:
Assay in all cases: inhibition of tumour cell growth, NCI panel, 48 h
786-0 renal = test system: 786-0 renal
A498 renal = test system: A498 renal
A549 NSCLC = test system: A549 NSCLC
ACHN renal = test system: ACHN renal
BT-549 breast = test system: BT-549 breast
CAKI-1 renal = test system: CAKI-1 renal
CCRF-CEM leukemia = test system: CCRF-CEM leukemia
COLO 205 colon = test system: COLO 205 colon
DU-145 prostate = test system: DU-145 prostate
EKVX NSCLC = test system: EKVX NSCLC
HCC-2998 colon = test system: HCC-2998 colon
HCT-116 colon = test system: HCT-116 colon
HCT-15 colon = test system: HCT-15 colon
HL-60(TB) leukemia = test system: HL-60(TB) leukemia
HOP-62 NSCLC = test system: HOP-62 NSCLC
HOP-92 NSCLC = test system: HOP-92 NSCLC
HS 578T breast = test system: HS 578T breast
HT29 colon = test system: HT29 colon
IGROV1 ovarian = test system: IGROV1 ovarian
K-562 leukemia = test system: K-562 leukemia
KM12 colon = test system: KM12 colon
LOX IMVI melanoma = test system: LOX IMVI melanoma
M14 melanoma = test system: M14 melanoma
MALME-3M melanoma = test system: MALME-3M melanoma
MCF7 breast = test system: MCF7 breast
MDA-MB-231 breast = test system: MDA-MB-231 breast
MDA-MB-435 = test system: MDA-MB-435
MOLT-4 leukemia = test system: MOLT-4 leukemia
NCI-H226 lung = test system: NCI-H226 lung
NCI-H23 lung = test system: NCI-H23 lung
NCI-H460 lung = test system: NCI-H460 lung
NCI-H522 lung = test system: NCI-H522 lung
NCI/ADR-RES ovarian = test system: NCI/ADR-RES ovarian
OVCAR-3 ovarian = test system: OVCAR-3 ovarian
OVCAR-4 ovarian = test system: OVCAR-4 ovarian
OVCAR-5 ovarian = test system: OVCAR-5 ovarian
OVCAR-8 ovarian = test system: OVCAR-8 ovarian
PC-3 prostate = test system: PC-3 prostate
RPMI-8226 leukemia = test system: RPMI-8226 leukemia
RXF 393 renal = test system: RXF 393 renal
SF-268 CNS = test system: SF-268 CNS
SF-295 CNS = test system: SF-295 CNS
SF-539 CNS = test system: SF-539 CNS
SK-MEL-2 melanoma = test system: SK-MEL-2 melanoma
SK-MEL-28 melanoma = test system: SK-MEL-28 melanoma
SK-MEL-5 melanoma = test system: SK-MEL-5 melanoma
SK-OV-3 ovarian = test system: SK-OV-3 ovarian
SN12C renal = test system: SN12C renal
SNB-19 CNS = test system: SNB-19 CNS
SNB-75 CNS = test system: SNB-75 CNS
SR leukemia = test system: SR leukemia
SW-620 colon = test system: SW-620 colon
T-47D breast = test system: T-47D breast
TK-10 renal = test system: TK-10 renal
U251 CNS = test system: U251 CNS
UACC-257 melanoma = test system: UACC-257 melanoma
UACC-62 melanoma = test system: UACC-62 melanoma
UO-31 renal = test system: UO-31 renal

COc1ccc2ncnc(Nc3ccc(OCc4ccccc4)cc3)c2c1
GI50 (786-0 renal): 4.76 µM
TGI (786-0 renal): 10.9 µM
GI50 (A498 renal): 2.14 µM
TGI (A498 renal): 14.1 µM
GI50 (A549 NSCLC): 5.98 µM
TGI (A549 NSCLC): > 25 µM
GI50 (ACHN renal): 5.88 µM
TGI (ACHN renal): > 25 µM
GI50 (BT-549 breast): 7.91 µM
TGI (BT-549 breast): > 25 µM
GI50 (CAKI-1 renal): 3.85 µM
TGI (CAKI-1 renal): > 17.2 µM
GI50 (CCRF-CEM leukemia): 8.49 µM
TGI (CCRF-CEM leukemia): > 25 µM
GI50 (COLO 205 colon): 7.96 µM
TGI (COLO 205 colon): > 25 µM
GI50 (DU-145 prostate): 8.2 µM
TGI (DU-145 prostate): > 25 µM
GI50 (EKVX NSCLC): 2.25 µM
TGI (EKVX NSCLC): 12.9 µM
GI50 (HCC-2998 colon): 6.42 µM
TGI (HCC-2998 colon): 18 µM
GI50 (HCT-116 colon): 8.35 µM
TGI (HCT-116 colon): > 25 µM
GI50 (HCT-15 colon): 5.61 µM
TGI (HCT-15 colon): > 25 µM
GI50 (HL-60(TB) leukemia): 7.06 µM
TGI (HL-60(TB) leukemia): 16.8 µM
GI50 (HOP-62 NSCLC): 10.6 µM
TGI (HOP-62 NSCLC): > 25 µM
GI50 (HOP-92 NSCLC): 2.92 µM
TGI (HOP-92 NSCLC): 16.9 µM
GI50 (HS 578T breast): 10.2 µM
TGI (HS 578T breast): > 25 µM
GI50 (HT29 colon): 6.54 µM
TGI (HT29 colon): > 25 µM
GI50 (IGROV1 ovarian): 6.61 µM
TGI (IGROV1 ovarian): > 22.2 µM
GI50 (K-562 leukemia): 9.01 µM
TGI (K-562 leukemia): > 25 µM
GI50 (KM12 colon): 8.67 µM
TGI (KM12 colon): > 25 µM
GI50 (LOX IMVI melanoma): 7.85 µM
TGI (LOX IMVI melanoma): > 25 µM
GI50 (M14 melanoma): 8.48 µM
TGI (M14 melanoma): > 25 µM
GI50 (MALME-3M melanoma): 10.1 µM
TGI (MALME-3M melanoma): > 25 µM
GI50 (MCF7 breast): 7.49 µM
TGI (MCF7 breast): > 25 µM
GI50 (MDA-MB-231 breast): 4.6 µM
TGI (MDA-MB-231 breast): 11.1 µM
GI50 (MDA-MB-435): 7.22 µM
TGI (MDA-MB-435): > 21.1 µM
GI50 (MOLT-4 leukemia): 7.56 µM
TGI (MOLT-4 leukemia): > 23.5 µM
GI50 (NCI-H226 lung): 8.1 µM
TGI (NCI-H226 lung): > 25 µM
GI50 (NCI-H23 lung): 8.48 µM
TGI (NCI-H23 lung): > 25 µM
GI50 (NCI-H460 lung): 7.58 µM
TGI (NCI-H460 lung): > 25 µM
GI50 (NCI-H522 lung): 4.95 µM
TGI (NCI-H522 lung): > 17.1 µM
GI50 (NCI/ADR-RES ovarian): 7.56 µM
TGI (NCI/ADR-RES ovarian): > 25 µM
GI50 (OVCAR-3 ovarian): 7.08 µM
TGI (OVCAR-3 ovarian): > 23.1 µM
GI50 (OVCAR-4 ovarian): 7.38 µM
TGI (OVCAR-4 ovarian): > 25 µM
GI50 (OVCAR-5 ovarian): 6.57 µM
TGI (OVCAR-5 ovarian): > 22.6 µM
GI50 (OVCAR-8 ovarian): 8.39 µM
TGI (OVCAR-8 ovarian): > 25 µM
GI50 (PC-3 prostate): 8.54 µM
TGI (PC-3 prostate): > 25 µM
GI50 (RPMI-8226 leukemia): 7.58 µM
TGI (RPMI-8226 leukemia): > 25 µM
GI50 (RXF 393 renal): 4.59 µM
TGI (RXF 393 renal): 10.2 µM
GI50 (SF-268 CNS): 13.9 µM
TGI (SF-268 CNS): > 25 µM
GI50 (SF-295 CNS): 5.15 µM
TGI (SF-295 CNS): > 18.7 µM
GI50 (SF-539 CNS): 8.96 µM
TGI (SF-539 CNS): > 25 µM
GI50 (SK-MEL-2 melanoma): 9.97 µM
TGI (SK-MEL-2 melanoma): > 25 µM
GI50 (SK-MEL-28 melanoma): 9.36 µM
TGI (SK-MEL-28 melanoma): > 25 µM
GI50 (SK-MEL-5 melanoma): 4.62 µM
TGI (SK-MEL-5 melanoma): 11.8 µM
GI50 (SK-OV-3 ovarian): 3.41 µM
TGI (SK-OV-3 ovarian): > 23.6 µM
GI50 (SN12C renal): 9.14 µM
TGI (SN12C renal): > 25 µM
GI50 (SNB-19 CNS): 9.78 µM
TGI (SNB-19 CNS): > 25 µM
GI50 (SNB-75 CNS): 9.78 µM
TGI (SNB-75 CNS): > 25 µM
GI50 (SR leukemia): 11.6 µM
TGI (SR leukemia): > 25 µM
GI50 (SW-620 colon): 9.04 µM
TGI (SW-620 colon): > 25 µM
GI50 (T-47D breast): 5.37 µM
TGI (T-47D breast): > 25 µM
GI50 (TK-10 renal): 3.68 µM
TGI (TK-10 renal): 18.4 µM
GI50 (U251 CNS): 8.54 µM
TGI (U251 CNS): > 25 µM
GI50 (UACC-257 melanoma): 7.47 µM
TGI (UACC-257 melanoma): > 25 µM
GI50 (UACC-62 melanoma): 6.12 µM
TGI (UACC-62 melanoma): > 18.1 µM
GI50 (UO-31 renal): 3.62 µM
TGI (UO-31 renal): > 17 µM
